For this experiment, the target named is T1, recombinant human PKM2 (Homo sapiens, UniProt P14618).
T1 construct: His (N); purchased R&D Systems
Description: Human PKM2 activation assay (Kinase-Glo Plus luminescent detection of generated ATP). Type of experiment: biochemical. As to conditions: for Emax: percentage activation normalised to DMSO vehicle (LOW) and 5 μM TEPP-46 (HIGH), read-out: hPKM2 Emax; for pEC50: recombinant human PKM2 activation, 4-parameter logistic fit, read-out: hPKM2 EC50. Summed up: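 Luminescent ATP detection (Kinase-Glo Plus, 15 min, 26 °C) followed a 60 min, 26 °C shaken reaction of compound with […] His-tagged human PKM2, PEP and ADP in imidazole/KCl/MgCl2 buffer with Tween20 and BSA, pH 7.2.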

Molecules are shown by their SMILES. pEC50: −log10 of the molar value.

T1 sequence (P14618 2-531 limits assumed): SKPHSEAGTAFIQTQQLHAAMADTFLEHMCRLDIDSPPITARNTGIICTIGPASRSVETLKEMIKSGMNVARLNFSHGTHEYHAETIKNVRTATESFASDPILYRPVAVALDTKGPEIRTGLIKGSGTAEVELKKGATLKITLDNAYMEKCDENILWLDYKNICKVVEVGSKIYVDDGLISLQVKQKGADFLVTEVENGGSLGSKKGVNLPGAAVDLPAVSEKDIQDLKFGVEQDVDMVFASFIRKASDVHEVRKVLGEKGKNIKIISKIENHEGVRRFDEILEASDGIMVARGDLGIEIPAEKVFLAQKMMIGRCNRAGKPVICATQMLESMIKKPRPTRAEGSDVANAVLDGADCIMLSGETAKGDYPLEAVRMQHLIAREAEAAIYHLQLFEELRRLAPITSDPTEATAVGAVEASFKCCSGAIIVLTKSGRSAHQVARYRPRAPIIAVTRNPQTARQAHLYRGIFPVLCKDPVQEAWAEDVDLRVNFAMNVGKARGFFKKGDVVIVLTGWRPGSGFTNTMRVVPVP

As for `O=c1c2cc(NCCO)c(S(=O)(=O)c3ccccc3)cc2cnn1Cc1cc[nH]n1` [Example 263, 2-((1H-pyrazol-3-yl)methyl)-7-((2-hydroxyethyl)amino)-6-(phenylsulfonyl)phthalazin-1(2H)-one], the Emax was 98% and the pEC50 is 6.76. The matching figures for `Cn1ccc(Cn2ncc3cc(S(=O)(=O)c4cnn(CCO)c4)ccc3c2=O)n1` [Example 264, 6-((1-(2-hydroxyethyl)-1H-pyrazol-4-yl)sulfonyl)-2-((1-methyl-1H-pyrazol-3-yl)methyl)phthalazin-1(2H)-one]: 94.6% and 6.69. Regarding `Cn1cc(S(=O)(=O)c2cc3cnn(Cc4cc[nH]n4)c(=O)c3cn2)cn1` [Example 266, 3-((1H-pyrazol-3-yl)methyl)-7-((1-methyl-1H-pyrazol-4-yl)sulfonyl)pyrido[3,4-d]pyridazin-4(3H)-one], the Emax turned out to be 92.3% and the pEC50 is 6.72. On to `Cn1cc(S(=O)(=O)c2cnc3c(=O)n(Cc4cc[nH]n4)ncc3c2)cn1` [Example 267, 7-((1H-pyrazol-3-yl)methyl)-3-((1-methyl-1H-pyrazol-4-yl)sulfonyl)pyrido[2,3-d]pyridazin-8(7H)-one], for which the Emax was determined as 83.5% and the pEC50 is 6.32.

For `Cn1cc(S(=O)(=O)c2cc3cnn(Cc4cc[nH]n4)c(=O)c3cc2NCCO)cn1` [Example 268, 2-((1H-pyrazol-3-yl)methyl)-7-((2-hydroxyethyl)amino)-6-((1-methyl-1H-pyrazol-4-yl)sulfonyl)phthalazin-1(2H)-one], the maximum response (Emax) is 102% and the pEC50 is 6.45. As to `Cc1cccc(Cn2ncc3cc(S(=O)(=O)c4cnn(CCO)c4)ccc3c2=O)n1` [Example 269], the Emax was 103% and the negative-log EC50 (pEC50) was 6.89. The matching figures for `O=c1c2ccc(S(=O)(=O)c3ccccc3)cc2cnn1Cc1ccn(C2COC2)n1` [Example 273, 2-((1-(oxetan-3-yl)-1H-pyrazol-3-yl)methyl)-6-(phenylsulfonyl)phthalazin-1(2H)-one]: 112% and 6.34. For `CC(O)c1cccc(Cn2ncc3cc(S(=O)(=O)c4cnn(C)c4)ccc3c2=O)n1` (stereo not drawn) [Example 274, 2-((6-(1-hydroxyethyl)pyridin-2-yl)methyl)-6-((1-methyl-1H-pyrazol-4-yl)sulfonyl)phthalazin-1(2H)-one], in that order: 93% and 6.46. Regarding `Cc1cccc(Cn2ncc3cc(S(=O)(=O)c4cnn(C5CNC5)c4)ccc3c2=O)n1` [Example 276, 6-((1-(azetidin-3-yl)-1H-pyrazol-4-yl)sulfonyl)-2-((6-methylpyridin-2-yl)methyl)phthalazin-1(2H)-one], the maximal response (Emax) turned out to be 102% and the pEC50 is 6.29. For `Cc1cccc(Cn2ncc3cc(S(=O)(=O)c4cnn(CCN)c4)ccc3c2=O)n1` [Example 277, 6-((1-(2-aminoethyl)-1H-pyrazol-4-yl)sulfonyl)-2-((6-methylpyridin-2-yl)methyl)phthalazin-1(2H)-one], in that order: 105% and 6.52.

Regarding `COc1ccc(Cn2ncc3cc(S(=O)(=O)c4ccn(CCO)n4)ccc3c2=O)cn1` [Example 280, 6-((1-(2-hydroxyethyl)-1H-pyrazol-3-yl)sulfonyl)-2-((6-methoxypyridin-3-yl)methyl)phthalazin-1(2H)-one], the Emax amounted to 89.2% and the pEC50 was 6.92.

With `COCCn1cc(S(=O)(=O)c2ccc3c(=O)n(Cc4cc[nH]n4)ncc3c2)cn1` [Example 281, 2-((1H-pyrazol-3-yl)methyl)-6-((1-(2-methoxyethyl)-1H-pyrazol-4-yl)sulfonyl)phthalazin-1(2H)-one], the Emax is 113% and the pEC50 was 6.42. The matching figures for `Cc1cccc(Cn2ncc3cc(S(=O)(=O)c4csc(C(C)O)n4)ccc3c2=O)n1` (stereo not drawn) [Example 282, 6-((2-(1-hydroxyethyl)thiazol-4-yl)sulfonyl)-2-((6-methylpyridin-2-yl)methyl)phthalazin-1(2H)-one]: 109% and 6.81. `Cn1cc(S(=O)(=O)c2ccc3c(=O)n(Cc4cccc(C5(O)COC5)n4)ncc3c2)cn1` [Example 283, 2-((6-(3-hydroxyoxetan-3-yl)pyridin-2-yl)methyl)-6-((1-methyl-1H-pyrazol-4-yl)sulfonyl)phthalazin-1(2H)-one]: the Emax came to 78.6% and the pEC50 is 6.36. Take `COc1ncccc1Cn1ncc2cc(S(=O)(=O)c3cn[nH]c3)ccc2c1=O` [Example 284, 6-((1H-pyrazol-4-yl)sulfonyl)-2-((2-methoxypyridin-3-yl)methyl)phthalazin-1(2H)-one]: the Emax turned out to be 72.7% and the pEC50 is 6.34.

`COc1ccc(S(=O)(=O)c2ccc3c(=O)n(Cc4ccn(CCO)n4)ncc3c2)cn1` [Example 285, 2-((1-(2-hydroxyethyl)-1H-pyrazol-3-yl)methyl)-6-((6-methoxypyridin-3-yl)sulfonyl)phthalazin-1(2H)-one]: the Emax came out at 98.4% and the pEC50 is 6.66. The matching figures for `COc1cccc(S(=O)(=O)c2ccc3c(=O)n(Cc4cc[nH]n4)ncc3c2)n1` [Example 286, 2-((1H-pyrazol-3-yl)methyl)-6-((6-methoxypyridin-2-yl)sulfonyl)phthalazin-1(2H)-one]: 105% and 6.61. For the compound `Cc1cccc(S(=O)(=O)c2ccc3c(=O)n(Cc4cc[nH]n4)ncc3c2)n1` [Example 288, 2-((1H-pyrazol-3-yl)methyl)-6-((6-methylpyridin-2-yl)sulfonyl)phthalazin-1(2H)-one], the Emax is 93.9% and the pEC50 is 6.73.

For the compound `Cc1ccc(S(=O)(=O)c2ccc3c(=O)n(Cc4cc[nH]n4)ncc3c2)nc1` [Example 289, 2-((1H-pyrazol-3-yl)methyl)-6-((5-methylpyridin-2-yl)sulfonyl)phthalazin-1(2H)-one], the Emax turned out to be 91.8% and the pEC50 is 6.50. Regarding `Cc1ccc(S(=O)(=O)c2ccc3c(=O)n(Cc4cc[nH]n4)ncc3c2)cn1` [Example 290, 2-((1H-pyrazol-3-yl)methyl)-6-((6-methylpyridin-3-yl)sulfonyl)phthalazin-1(2H)-one], the Emax worked out at 106% and the pEC50 is 6.23. Turning to `COc1ccc(Cn2ncc3cc(S(=O)(=O)c4cn[nH]c4)ccc3c2=O)nc1C` [Example 291, 6-(1H-pyrazol-4-ylsulfonyl)-2-((5-methoxy-6-methylpyridin-2-yl)methyl)phthalazin-1(2H)-one], the Emax worked out at 82.8% and the pEC50 was 6.01. The matching figures for `COc1ccc(S(=O)(=O)c2ccc3c(=O)n(Cc4ccn(CCO)n4)ncc3c2)nc1` [Example 292, 2-((1-(2-hydroxyethyl)-1H-pyrazol-3-yl)methyl)-6-((5-methoxypyridin-2-yl)sulfonyl)phthalazin-1(2H)-one]: 86.6% and 6.55. For `O=c1c2ccc(S(=O)(=O)c3cn[nH]c3)cc2cnn1Cc1cnc2c(c1)CCO2` [Example 293, 6-(1H-pyrazol-4-ylsulfonyl)-2-((2,3-dihydrofuro[2,3-b]pyridin-5-yl)methyl)phthalazin-1(2H)-one], in that order: 67.5% and 6.07. For `COc1cccc(Cn2ncc3cc(S(=O)(=O)c4cn[nH]c4)ccc3c2=O)n1` [Example 294, 6-((1H-pyrazol-4-yl)sulfonyl)-2-((6-methoxypyridin-2-yl)methyl)phthalazin-1(2H)-one], in that order: 104% and 6.82.

As to `Cc1ccc(Cn2ncc3cc(S(=O)(=O)c4cn[nH]c4)ccc3c2=O)cn1` [Example 295, 6-((1H-pyrazol-4-yl)sulfonyl)-2-((6-methylpyridin-3-yl)methyl)phthalazin-1(2H)-one], the Emax was found to be 104% and the pEC50 was 6.34. The matching figures for `O=c1c2ccc(S(=O)(=O)c3cc[nH]n3)cc2cnn1Cc1ccc2c(n1)CCO2` [Example 299, 6-((1H-pyrazol-3-yl)sulfonyl)-2-((2,3-dihydrofuro[3,2-b]pyridin-5-yl)methyl)phthalazin-1(2H)-one]: 104% and 7.51.

For `Cc1cc(Cn2ncc3cc(S(=O)(=O)c4cn[nH]c4)ncc3c2=O)n[nH]1` [Example 300, 7-((1H-pyrazol-4-yl)sulfonyl)-3-((5-methyl-1H-pyrazol-3-yl)methyl)pyrido[3,4-d]pyridazin-4(3H)-one], the Emax stood at 93.2% and the pEC50 was 7.00.

For the compound `Cc1ccc(F)c(Cn2ncc3cc(S(=O)(=O)c4cc[nH]n4)ccc3c2=O)n1` [Example 301], the Emax stood at 119% and the pEC50 is 6.88.

As for `O=c1c2ccc(S(=O)(=O)c3cc[nH]n3)cc2cnn1Cc1cccc(C2CC2)n1` [Example 302], the Emax was found to be 104% and the pEC50 was 6.92. For `Cc1nc(Cn2ncc3cc(S(=O)(=O)c4cc[nH]n4)ccc3c2=O)ccc1F` [Example 303], in that order: 118% and 7.05. Turning to `O=c1c2ccc(S(=O)(=O)c3cnn(C(F)F)c3)cc2cnn1Cc1cc[nH]n1` [Example 305], the Emax came to 99.9%. Regarding `Cn1ccc(S(=O)(=O)c2ccc3c(=O)n(Cc4cc[nH]n4)ncc3c2)n1` [Example 306], the Emax was 104% and the pEC50 is 6.62. Take `O=c1c2ccc(S(=O)(=O)c3cnn(CCO)c3)cc2cnn1Cc1cccc(C2CC2)n1` [Example 307]: the Emax is 94.6% and the pEC50 is 7.14. The matching figures for `Cn1cc(Cl)c(Cn2ncc3cc(S(=O)(=O)c4cn[nH]c4)ccc3c2=O)n1` [Example 308]: 95.5% and 6.84. As for `Cc1cc(Cn2ncc3cc(S(=O)(=O)c4cn[nH]c4)ccc3c2=O)nn1C` [Example 310], the Emax amounted to 107% and the pEC50 was 6.82.

The record behind these values is US20260152487A1 (Sitryx Therapeutics Limited, priority 2021, published 2026).
